Reference: patent publication US20260226073A1 (AURIGENE ONCOLOGY LIMITED, priority 2023, published 2026)

Molecular target: T1, human recombinant CBL-b (human Biotin CBL-b recombinant protein a.a. 39-426) (Homo sapiens, UniProt Q13191)
T1 construct: human Biotin CBL-b recombinant protein a.a; 39-426; Biotin (biotinylated); made in house
Experiment: Biochemical assay for CBL-b inhibition (ligand displacement TR-FRET)
Type: binding
Conditions: 50 nM CBL-b, 0.3 μM Bodipy FL-Probe, read-out: IC50 (CBL-b inhibition, group)
Method: The inhibitory activity of the test compounds was assessed by Ligand displacement TR-FRET assay. The human recombinant CBL-b (human Biotin CBL-b recombinant protein a.a. 39-426; synthesised in-house) was diluted in enzyme assay buffer (20 mM HEPES, 150 mM NaCl, 0.01% Triton X, 0.01% BSA, 0.5 mM TCEP) in a 10 μl volume and plated in 384-well plates (Cat #781075, Greiner) to a final concentration of 50 nM. The enzyme/compound mixture was incubated at RT for 60 min. The Bodipy FL-Probe described in WO 2020/210508 (synthesized in-house) diluted in enzyme assay buffer was added to the plate and incubated for 60 min RT, the final probe concentration was 0.3 μM. After 60 min incubation, 10 μl of detection mix (Terbium Streptavidin, (Cat #PV3576, Invitrogen) diluted in 1× Lance buffer) was added and incubated for 60 min at room temperature. Time-resolved fluorescence (excitation, 320 nm; emission donor, 615 nm; emission acceptor, 665 nm) was monitored by using 2030 multilabel reader Victor5 (PerkinElmer). The IC50 (concentration for half maximal inhibition) and % maximum inhibition of the compounds were estimated by fitting the dose response data to a sigmoidal curve fitting equation using Graph pad Prism software V. 8.

T1 sequence (Q13191 39-426): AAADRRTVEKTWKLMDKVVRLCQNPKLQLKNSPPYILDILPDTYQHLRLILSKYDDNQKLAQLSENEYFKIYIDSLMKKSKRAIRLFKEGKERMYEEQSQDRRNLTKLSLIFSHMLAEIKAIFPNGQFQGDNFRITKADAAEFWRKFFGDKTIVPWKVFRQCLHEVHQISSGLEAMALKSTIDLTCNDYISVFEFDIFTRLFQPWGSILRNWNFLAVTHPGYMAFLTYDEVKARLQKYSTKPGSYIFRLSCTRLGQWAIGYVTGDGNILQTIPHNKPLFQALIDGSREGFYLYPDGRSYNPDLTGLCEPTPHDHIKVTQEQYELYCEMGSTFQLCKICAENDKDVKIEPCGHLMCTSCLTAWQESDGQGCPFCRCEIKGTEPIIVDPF

IC50	SMILES
300 to 5000 nM	CC1CCC(C)N(Cc2cc(N3Cc4ccc(C5(Cc6nncn6C)COC5)cc4C3=O)nc(C(F)(F)F)c2)C1 (single isomer, unassigned) [Compound 139]
300 to 5000 nM	CC1CCC(C)N(Cc2cc(N3Cc4ccc(C5(Cc6nncn6C)COC5)cc4C3=O)nc(C(F)(F)F)c2)C1 (single isomer, unassigned) [Compound 140]
< 80 nM	CC1CCC(C)N(Cc2cc(N3Cc4ccc(C5(Cc6nncn6C)COC5)cc4C3=O)nc(C(F)(F)F)c2)C1 (single isomer, unassigned) [Compound 141]
300 to 5000 nM	CC1CCC(C)N(Cc2cc(N3Cc4ccc(C5(Cc6nncn6C)COC5)cc4C3=O)nc(C(F)(F)F)c2)C1 (single isomer, unassigned) [Compound 142]
80 to 300 nM	C[C@H]1CCCN(Cc2cc(Cl)nc(N3Cc4ccc([C@@H](Cc5nncn5C)C(F)(F)F)cc4C3=O)c2)C1 (single isomer, unassigned) [Compound 180]
< 80 nM	Cn1cnnc1CC1(c2ccc3c(c2)C(=O)N(c2cc(CNC4CCCC4O)cc(Cl)n2)C3)COC1 (single isomer, unassigned) [Compound 209, 2-(6-Chloro-4-(((2-hydroxycyclopentyl)amino)methyl)pyridin-2-yl)-6-(3-((4-methyl-4H-1,2,4-triazol-3-yl)methyl)oxetan-3-yl)isoindolin-1-one]
80 to 300 nM	C[C@@H](NCc1cscn1)c1cc(Cl)nc(N2Cc3ccc(C4(Cc5nncn5C)COC4)cc3C2=O)c1 (single isomer, unassigned) [Compound 217]
80 to 300 nM	C[C@@H](NC[C@H]1CCCO1)c1cc(Cl)nc(N2Cc3ccc(C4(Cc5nncn5C)COC4)cc3C2=O)c1 (single isomer, unassigned) [Compound 220]
300 to 5000 nM	C[C@@H](NCc1ccccn1)c1cc(Cl)nc(N2Cc3ccc(C4(Cc5nncn5C)COC4)cc3C2=O)c1 (single isomer, unassigned) [Compound 241]
80 to 300 nM	C[C@H](NCc1ccccn1)c1cc(Cl)nc(N2Cc3ccc(C4(Cc5nncn5C)COC4)cc3C2=O)c1 (single isomer, unassigned) [Compound 242]
80 to 300 nM	Cn1cnnc1C[C@]1(c2ccc3c(c2)C(=O)N(c2cc(CNCC4CCC4)cc(Cl)n2)C3)C[C@@H](C#N)C1 (single isomer, unassigned) [Compound 245]
300 to 5000 nM	C[C@H]1CCCN(Cc2cc(N3CCCC3)cc(N3Cc4ccc(C5(Cc6nncn6C)COC5)cc4C3=O)c2)C1 [Compound 21, (S)-6-(3-((4-Methyl-4H-1,2,4-triazol-3-yl)methyl)oxetan-3-yl)-2-(3-((3-methyl-piperidin-1-yl)methyl)-5-(pyrrolidin-1-yl)phenyl)isoindolin-1-one]
300 to 5000 nM	Cc1cc(CNCC(F)(F)F)cc(N2Cc3ccc(C4(Cc5nncn5C)COC4)cc3C2=O)c1 [Compound 22, 6-(3-((4-Methyl-4H-1,2,4-triazol-3-yl)methyl)oxetan-3-yl)-2-(3-methyl-5-(((2,2,2-trifluoroethyl)amino)methyl)phenyl)isoindolin-1-one]
300 to 5000 nM	Cn1cnnc1CC1(c2ccc3c(c2)C(=O)N(c2cc(CN4CCC5(CCCO5)CC4)cc(C(F)(F)F)n2)C3)COC1 [Compound 32, 2-(4-((1-Oxa-8-azaspiro[4.5]decan-8-yl)methyl)-6-(trifluoromethyl)pyridin-2-yl)-6-(3-((4-methyl-4H-1,2,4-triazol-3-yl)methyl)oxetan-3-yl)isoindolin-1-one]
300 to 5000 nM	Cn1cnnc1CC1(c2ccc3c(c2)C(=O)N(c2cc(C(=O)N4CC[C@H](O)C4)cc(C(F)(F)F)n2)C3)COC1 [Compound 36, (S)-2-(4-(3-Hydroxypyrrolidine-1-carbonyl)-6-(trifluoromethyl)pyridin-2-yl)-6-(3-((4-methyl-4H-1,2,4-triazol-3-yl)methyl)oxetan-3-yl)isoindolin-1-one]
300 to 5000 nM	Cn1cnnc1CC1(c2ccc3c(c2)C(=O)N(c2cc(CN4CCC(C(F)(F)F)CC4)cc(C(F)(F)F)n2)C3)COC1 [Compound 38, 6-(3-((4-Methyl-4H-1,2,4-triazol-3-yl)methyl)oxetan-3-yl)-2-(6-(trifluoro-methyl)-4-((4-(trifluoromethyl)piperidin-1-yl)methyl)pyridin-2-yl)isoindolin-1-one]
300 to 5000 nM	Cn1cnnc1CC1(c2ccc3c(c2)C(=O)N(c2cc(CN4CCC(O)CC4)cc(C(F)(F)F)n2)C3)COC1 [Compound 43, 2-(4-((4-Hydroxypiperidin-1-yl)methyl)-6-(trifluoromethyl)pyridin-2-yl)-6-(3-((4-methyl-4H-1,2,4-triazol-3-yl)methyl)oxetan-3-yl)isoindolin-1-one]
300 to 5000 nM	Cn1cnnc1CC1(c2ccc3c(c2)C(=O)N(c2cc(CN4CCC5(CCCO5)C4)cc(C(F)(F)F)n2)C3)COC1 (centres unmarked) [Compound 50, 2-(4-((1-Oxa-7-azaspiro[4.4]nonan-7-yl)methyl)-6-(trifluoromethyl)pyridin-2-yl)-6-(3-((4-methyl-4H-1,2,4-triazol-3-yl)methyl)oxetan-3-yl)isoindolin-1-one]
300 to 5000 nM	Cc1nccn1Cc1cc(N2Cc3ccc(C4(Cc5nncn5C)COC4)cc3C2=O)nc(C(F)(F)F)c1 [Compound 54, 2-(4-((2-Methyl-1H-imidazol-1-yl)methyl)-6-(trifluoromethyl)pyridin-2-yl)-6-(3-((4-methyl-4H-1,2,4-triazol-3-yl)methyl)oxetan-3-yl)isoindolin-1-one]
300 to 5000 nM	Cn1cnnc1CC1(c2ccc3c(c2)C(=O)N(c2cc(CN4CC5(COC5)C4)cc(C(F)(F)F)n2)C3)COC1 [Compound 55, 2-(4-((2-Oxa-6-azaspiro[3.3]heptan-6-yl)methyl)-6-(trifluoromethyl)pyridin-2-yl)-6-(3-((4-methyl-4H-1,2,4-triazol-3-yl)methyl)oxetan-3-yl)isoindolin-1-one]
80 to 300 nM	CN1CCN(Cc2cc(N3Cc4ccc(C5(Cc6nncn6C)COC5)cc4C3=O)nc(C(F)(F)F)c2)CC1=O [Compound 63, 2-(4-((4-Methyl-3-oxopiperazin-1-yl)methyl)-6-(trifluoromethyl)pyridin-2-yl)-6-(3-((4-methyl-4H-1,2,4-triazol-3-yl)methyl)oxetan-3-yl)isoindolin-1-one]
300 to 5000 nM	Cc1cncn1Cc1cc(N2Cc3ccc(C4(Cc5nncn5C)COC4)cc3C2=O)nc(C(F)(F)F)c1 [Compound 69, 2-(4-((5-Methyl-1H-imidazol-1-yl)methyl)-6-(trifluoromethyl)pyridin-2-yl)-6-(3-((4-methyl-4H-1,2,4-triazol-3-yl)methyl)oxetan-3-yl)isoindolin-1-one]
300 to 5000 nM	Cc1cn(Cc2cc(N3Cc4ccc(C5(Cc6nncn6C)COC5)cc4C3=O)nc(C(F)(F)F)c2)cn1 [Compound 70, 2-(4-((4-Methyl-1H-imidazol-1-yl)methyl)-6-(trifluoromethyl)pyridin-2-yl)-6-(3-((4-methyl-4H-1,2,4-triazol-3-yl)methyl)oxetan-3-yl)isoindolin-1-one]
300 to 5000 nM	C[C@@H]1CN(Cc2cc(N3Cc4ccc(C5(Cc6nncn6C)COC5)cc4C3=O)nc(C(F)(F)F)c2)C[C@H](C)O1 [Compound 72, 2-(4-(((2R,6S)-2,6-Dimethylmorpholino)methyl)-6-(trifluoromethyl)pyridin-2-yl)-6-(3-((4-methyl-4H-1,2,4-triazol-3-yl)methyl)oxetan-3-yl)isoindolin-1-one]
300 to 5000 nM	CCNCCc1cc(N2Cc3ccc(C4(Cc5nncn5C)COC4)cc3C2=O)cc(C(F)(F)F)c1 [Compound 75, 2-(3-(2-(Ethylamino)ethyl)-5-(trifluoromethyl)phenyl)-6-(3-((4-methyl-4H-1,2,4-triazol-3-yl)methyl)oxetan-3-yl)isoindolin-1-one]
300 to 5000 nM	Cc1cc(N2Cc3ccc(C4(Cc5nncn5C)COC4)cc3C2=O)cc2c1cnn2CCN(C)C [Compound 76, 2-(1-(2-(Dimethylamino)ethyl)-4-methyl-1H-indazol-6-yl)-6-(3-((4-methyl-4H-1,2,4-triazol-3-yl)methyl)oxetan-3-yl)isoindolin-1-one]
300 to 5000 nM	CCN1CCc2c(cc(N3Cc4ccc(C5(Cc6nncn6C)COC5)cc4C3=O)cc2C(F)(F)F)C1 [Compound 77, 2-(2-Ethyl-5-(trifluoromethyl)-1,2,3,4-tetrahydroisoquinolin-7-yl)-6-(3-((4-methyl-4H-1,2,4-triazol-3-yl)methyl)oxetan-3-yl)isoindolin-1-one]
300 to 5000 nM	CCN(CC)Cc1cc(Cl)nc(N2Cc3ccc(C4(Cc5nncn5C)COC4)cc3C2=O)c1 [Compound 79, 2-(6-Chloro-4-((diethylamino)methyl)pyridin-2-yl)-6-(3-((4-methyl-4H-1,2,4-triazol-3-yl)methyl)oxetan-3-yl)isoindolin-1-one]
300 to 5000 nM	CN1CC2CC1CN2Cc1cc(N2Cc3ccc(C4(Cc5nncn5C)COC4)cc3C2=O)nc(C(F)(F)F)c1 (centres unmarked) [Compound 81, 2-(4-((5-Methyl-2,5-diazabicyclo[2.2.1]heptan-2-yl)methyl)-6-(trifluoromethyl)-pyridin-2-yl)-6-(3-((4-methyl-4H-1,2,4-triazol-3-yl)methyl)oxetan-3-yl)isoindolin-1-one]
